Measured values as given in US20220062240A1, “METHODS OF TREATING CANCER USING A CLK INHIBITOR” (BioSplice Therapeutics, Inc., priority 2018, published 2022).
Where two headings read alike, the source gives them in different places.

Columns and labels:
[1] = target: T1, CLK2 (Homo sapiens, UniProt P49760); test: CLK2 kinase activity assay (Z-lyte, Ser/Thr 6 peptide); assay type: biochemical; conditions: recombinant CLK2 kinase, ATP 60 μM; read-out: EC50
T1 construct: purchased Thermo Fisher (Life Technologies), Z'-LYTE Kinase Assay Kits
Method: All reactions were performed in duplicate.

[2] = test system: BT-549; test: CellTiter-Glo Viability Assay, breast cancer; assay type: cell-based; conditions: Homo sapiens, 96 h; BT-549, breast cancer, four days; read-out: EC50
[3] = test system: CAMA1; test: CellTiter-Glo Viability Assay, breast cancer; assay type: cell-based; conditions: Homo sapiens, CAMA-1, 96 h; CAMA1, breast cancer, four days; read-out: EC50
[4] = test system: DU4475; test: CellTiter-Glo Viability Assay, breast cancer; assay type: cell-based; conditions: Homo sapiens, DU-4475, 96 h; DU4475, breast cancer, four days; read-out: EC50
[5] = test system: HCC1599; test: CellTiter-Glo Viability Assay, breast cancer; assay type: cell-based; conditions: Homo sapiens, 96 h; HCC1599, breast cancer, four days; read-out: EC50
[6] = test system: MCF7; test: CellTiter-Glo Viability Assay, breast cancer; assay type: cell-based; conditions: Homo sapiens, 96 h; MCF7, breast cancer, four days; read-out: EC50
[7] = test system: MDA-MB-231-Luc; test: CellTiter-Glo Viability Assay, breast cancer; assay type: cell-based; conditions: Homo sapiens, 96 h; MDA-MB-231-Luc, breast cancer, four days; read-out: EC50
[8] = test system: T47D; test: CellTiter-Glo Viability Assay, breast cancer; assay type: cell-based; conditions: Homo sapiens, 96 h, breast cancer, four days, read-out: EC50
[9] = test system: ZR-75-1; test: CellTiter-Glo Viability Assay, breast cancer; assay type: cell-based; conditions: Homo sapiens, 96 h; ZR-75-1, breast cancer, four days; read-out: EC50
[10] = test system: all 50 cell lines; test: CellTiter-Glo Viability Assay, average across all cell lines; assay type: cell-based; conditions: Homo sapiens; across all 50 cell lines; read-out: average EC50 for inhibition of cancer cell proliferation
Outline: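 Cells were plated at 300-3,000 per well in their own media, then treated with compound in duplicate, with DMSO wells as controls. After four days at 37° C and 5% CO2, CellTiter-Glo was added, and luminescence was read. EC50s were fitted.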

[11] = test system: colorectal cancer (6 cell lines); test: CellTiter-Glo Viability Assay, colorectal cancer; assay type: cell-based; conditions: Homo sapiens, inhibition of cancer cell proliferation
[12] = test system: haematopoietic & lymphoid tumors (13 cell lines); test: CellTiter-Glo Viability Assay, haematopoietic & lymphoid tumors; assay type: cell-based; conditions: Homo sapiens, inhibition of cancer cell proliferation
[13] = test system: liver cancer (3 cell lines); test: CellTiter-Glo Viability Assay, liver cancer; assay type: cell-based; conditions: Homo sapiens, inhibition of cancer cell proliferation
[14] = test system: lung cancer (4 cell lines); test: CellTiter-Glo Viability Assay, lung cancer; assay type: cell-based; conditions: Homo sapiens, inhibition of cancer cell proliferation
[15] = test system: ovarian cancer (4 cell lines); test: CellTiter-Glo Viability Assay, ovarian cancer; assay type: cell-based; conditions: Homo sapiens, inhibition of cancer cell proliferation
[16] = test system: pancreatic cancer (8 cell lines); test: CellTiter-Glo Viability Assay, pancreatic cancer; assay type: cell-based; conditions: Homo sapiens, inhibition of cancer cell proliferation
[17] = test system: prostate cancer (5 cell lines); test: CellTiter-Glo Viability Assay, prostate cancer; assay type: cell-based; conditions: Homo sapiens
[18] = HCT-116, HCT116 cell line, read-out: Colorectal cancer, EC50 (μM) HCT116
[19] = HT-29, HT29 cell line, read-out: Colorectal cancer, EC50 (μM) HT29
[20] = SW-620, SW620 cell line, read-out: Colorectal cancer, EC50 (μM) SW620
[21] = DLD-1 cell line, read-out: Colorectal cancer, EC50 (μM) DLD-1
[22] = SW48 cell line, read-out: Colorectal cancer, EC50 (μM) SW48
[23] = DND41, DND-41 cell line, read-out: Haematopoietic & Lymphoid tumors, EC50 (μM) DND-41
[24] = MV4-11, MV-4-11 cell line, read-out: Haematopoietic & Lymphoid tumors, EC50 (μM) MV-4-11
[25] = Rec1, REC-1 cell line, read-out: Haematopoietic & Lymphoid tumors, EC50 (μM) REC-1
[26] = SU-DHL-4, SUDHL4 cell line, read-out: Haematopoietic & Lymphoid tumors, EC50 (μM) SUDHL4
[27] = HL-60 cell line, read-out: Haematopoietic & Lymphoid tumors, EC50 (μM) HL-60
[28] = JM1 cell line, read-out: Haematopoietic & Lymphoid tumors, EC50 (μM) JM1
[29] = JURKAT, Clone E6-1 cell line, read-out: Haematopoietic & Lymphoid tumors, EC50 (μM) JURKAT, Clone E6-1
[30] = JeKo-1 cell line, read-out: Haematopoietic & Lymphoid tumors, EC50 (μM) JeKo-1
[31] = KASUMI-1 cell line, read-out: Haematopoietic & Lymphoid tumors, EC50 (μM) KASUMI-1
[32] = Loucy cell line, read-out: Haematopoietic & Lymphoid tumors, EC50 (μM) Loucy
[33] = MOLT-4 cell line, read-out: Haematopoietic & Lymphoid tumors, EC50 (μM) MOLT-4
[34] = TF-1 cell line, read-out: Haematopoietic & Lymphoid tumors, EC50 (μM) TF-1
[35] = TOLEDO cell line, read-out: Haematopoietic & Lymphoid tumors, EC50 (μM) TOLEDO
[36] = SNU-398, SNU398 cell line, read-out: Liver cancer, EC50 SNU398
[37] = HEPG2 cell line, read-out: Liver cancer, EC50 HEPG2
[38] = PLC/PRF/5 cell line, read-out: Liver cancer, EC50 PLC/PRF/5
[39] = A-427, A427 cell line, read-out: Lung cancer, EC50 (μM) A427
[40] = HCC78, HCC-78 cell line, read-out: Lung cancer, EC50 (μM) HCC-78
[41] = NCI-H460 cell line, read-out: Lung cancer, EC50 (μM) NCI-H460
[42] = NCI-H522 cell line, read-out: Lung cancer, EC50 (μM) NCI-H522
[43] = PA-1, PA1 cell line, read-out: Ovarian cancer, EC50 (μM) PA1
[44] = TOV112D, TOV-112D cell line, read-out: Ovarian cancer, EC50 (μM) TOV-112D
[45] = OV-90 cell line, read-out: Ovarian cancer, EC50 (μM) OV-90
[46] = OVCAR-3 cell line, read-out: Ovarian cancer, EC50 (μM) OVCAR-3
[47] = BXPC-3, BxPC3 cell line, read-out: Pancreatic cancer, EC50 BxPC3
[48] = CAPAN-1, Capan1 cell line, read-out: Pancreatic cancer, EC50 Capan1
[49] = Capan-2, Capan2 cell line, read-out: Pancreatic cancer, EC50 Capan2
[50] = MIA PaCa-2 cell line, read-out: Pancreatic cancer, EC50 MIA PaCa-2
[51] = PANC 05.04 cell line, read-out: Pancreatic cancer, EC50 PANC 05.04
[52] = PANC-1 cell line, read-out: Pancreatic cancer, EC50 PANC-1
[53] = UPAFII cell line, read-out: Pancreatic cancer, EC50 UPAFII
[54] = DU-145, read-out: Prostate cancer EC50 Du-145
[55] = PC-3, PC3 cell line, inhibition of cancer cell proliferation, read-out: Prostate cancer EC50 PC3
[56] = 22Rv1 cell line, inhibition of cancer cell proliferation, read-out: Prostate cancer EC50 22Rv1
[57] = LNCap clone FGC cell line, inhibition of cancer cell proliferation, read-out: Prostate cancer EC50 LNCap clone FGC
[58] = VCaP (Sigma) cell line, inhibition of cancer cell proliferation, read-out: Prostate cancer EC50 VCaP (Sigma)

T1 sequence (P49760 whole entry): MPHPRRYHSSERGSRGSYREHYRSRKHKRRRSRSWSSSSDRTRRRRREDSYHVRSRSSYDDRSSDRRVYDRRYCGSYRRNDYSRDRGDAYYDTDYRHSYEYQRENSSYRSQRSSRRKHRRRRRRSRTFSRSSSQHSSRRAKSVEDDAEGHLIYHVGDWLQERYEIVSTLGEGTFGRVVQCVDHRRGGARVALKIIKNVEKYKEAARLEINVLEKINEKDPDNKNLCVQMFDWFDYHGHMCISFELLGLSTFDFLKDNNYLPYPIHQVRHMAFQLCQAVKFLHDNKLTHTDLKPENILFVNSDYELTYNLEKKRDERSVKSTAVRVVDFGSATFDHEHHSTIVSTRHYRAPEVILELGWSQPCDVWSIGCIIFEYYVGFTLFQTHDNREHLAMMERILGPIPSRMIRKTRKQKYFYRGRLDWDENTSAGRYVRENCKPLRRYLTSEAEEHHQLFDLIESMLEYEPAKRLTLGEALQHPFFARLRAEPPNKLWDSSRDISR

O=C1CCc2cccc(c2)-c2cncc(c2)NC(=O)c2n[nH]c3ccc(cc23)-c2cncc(c2)CN1 [Compound 62]
EC50 [1]: 5.3 nM
EC50 [2]: > 10000 nM
EC50 [3]: > 10000 nM
EC50 [4]: 387 nM
EC50 [5]: 26 nM
EC50 [6]: > 10000 nM
EC50 [7]: > 10000 nM
EC50 [8]: > 10000 nM
EC50 [9]: > 10000 nM
EC50 [10]: 8550 nM
EC50 [11, 18]: > 10 µM
EC50 [11, 19]: > 10 µM
EC50 [11, 20]: > 10 µM
EC50 [11, 21]: > 10 µM
EC50 [11, 22]: 0.393 µM
EC50 [12, 23]: 7.8 µM
EC50 [12, 24]: 0.19 µM
EC50 [12, 25]: > 10 µM
EC50 [12, 26]: > 10 µM
EC50 [12, 27]: > 10 µM
EC50 [12, 28]: > 10 µM
EC50 [12, 29]: > 10 µM
EC50 [12, 30]: 0.452 µM
EC50 [12, 31]: > 10 µM
EC50 [12, 32]: > 10 µM
EC50 [12, 33]: > 10 µM
EC50 [12, 34]: > 10 µM
EC50 [12, 35]: > 10 µM
EC50 [13, 36]: 473 nM
EC50 [13, 37]: > 10000 nM
EC50 [13, 38]: > 10000 nM
EC50 [14, 39]: > 10 µM
EC50 [14, 40]: > 10 µM
EC50 [14, 41]: > 10 µM
EC50 [14, 42]: > 10 µM
EC50 [15, 43]: > 10 µM
EC50 [15, 44]: > 10 µM
EC50 [15, 45]: > 10 µM
EC50 [15, 46]: 0.554 µM
EC50 [16, 47]: > 10000 nM
EC50 [16, 48]: > 10000 nM
EC50 [16, 49]: > 10000 nM
EC50 [16, 50]: > 10000 nM
EC50 [16, 51]: > 10000 nM
EC50 [16, 52]: > 10000 nM
EC50 [16, 53]: > 10000 nM
EC50 [17, 54]: > 10000 nM
EC50 [17, 55]: > 10000 nM
EC50 [17, 56]: 7430 nM
EC50 [17, 57]: > 10000 nM
EC50 [17, 58]: > 10000 nM

CN1CCN(c2cc(C(=O)Nc3cc4cc(-c5cnn(C)c5)c(F)cc4cn3)ccn2)CC1 [Compound 69]
EC50 [1]: 1.9 nM
EC50 [2]: 718 nM
EC50 [3]: 1230 nM
EC50 [4]: 374 nM
EC50 [5]: 648 nM
EC50 [6]: 3340 nM
EC50 [7]: 312 nM
EC50 [8]: 1290 nM
EC50 [9]: 412 nM
EC50 [10]: 636 nM
EC50 [11, 18]: 0.156 µM
EC50 [11, 19]: 0.318 µM
EC50 [11, 20]: 0.125 µM
EC50 [11, 21]: 0.265 µM
EC50 [11, 22]: 0.131 µM
EC50 ([11]; SW480 cell line, read-out: Colorectal cancer, EC50 (μM) SW480): 0.19 µM
EC50 [12, 23]: 0.225 µM
EC50 [12, 24]: 0.101 µM
EC50 [12, 25]: 0.11 µM
EC50 [12, 26]: 0.498 µM
EC50 [12, 27]: 0.522 µM
EC50 [12, 28]: 0.122 µM
EC50 [12, 29]: 0.5 µM
EC50 [12, 30]: 0.458 µM
EC50 [12, 31]: 1 µM
EC50 [12, 32]: 0.385 µM
EC50 [12, 33]: 0.343 µM
EC50 [12, 34]: 0.35 µM
EC50 [12, 35]: 0.132 µM
EC50 [13, 36]: 166 nM
EC50 [13, 37]: 372 nM
EC50 [13, 38]: 864 nM
EC50 [14, 39]: 0.756 µM
EC50 [14, 40]: 0.666 µM
EC50 [14, 41]: 0.922 µM
EC50 [14, 42]: 0.43 µM
EC50 [15, 43]: 0.195 µM
EC50 [15, 44]: 0.233 µM
EC50 [15, 45]: 0.901 µM
EC50 [15, 46]: 0.406 µM
EC50 [16, 47]: 918 nM
EC50 [16, 48]: 1020 nM
EC50 [16, 49]: 1420 nM
EC50 [16, 50]: 433 nM
EC50 [16, 51]: 664 nM
EC50 [16, 52]: 1160 nM
EC50 [16, 53]: 281 nM
EC50 [17, 54]: 748 nM
EC50 [17, 55]: 866 nM
EC50 [17, 56]: 316 nM
EC50 [17, 57]: 426 nM
EC50 [17, 58]: 3400 nM
